Measurements reported in the NIST ThermoML archive (doi:10.1021/je800110r).
Several values for one entry are separate records, joined by “and”; a condition that tells them apart may be missing. Equal values may be shown once. ± gives the expanded uncertainty stated by the source.

Details: Liquid, Vibrating tube method

## CCCCCCCCCC [decane]
313.14 K, 33167 kPa
  mass density: 739.6 ± 2.1 kg/m3
313.14 K, 33192 kPa
  mass density: 739.6 ± 2.1 kg/m3
313.14 K, 33228 kPa
  mass density: 739.6 ± 2.1 kg/m3
313.14 K, 33249 kPa
  mass density: 739.6 ± 2.1 kg/m3
313.14 K, 33282 kPa
  mass density: 739.6 ± 2.1 kg/m3
313.14 K, 33310 kPa
  mass density: 739.6 ± 2.1 kg/m3
313.14 K, 33326 kPa
  mass density: 739.8 ± 2.1 kg/m3
313.14 K, 33356 kPa
  mass density: 739.6 ± 2.1 kg/m3
313.14 K, 33377 kPa
  mass density: 739.6 ± 2.1 kg/m3
313.14 K, 33399 kPa
  mass density: 739.8 ± 2.1 kg/m3
313.14 K, 33423 kPa
  mass density: 739.6 ± 2.1 kg/m3
313.14 K, 33447 kPa
  mass density: 739.8 ± 2.1 kg/m3
313.14 K, 33472 kPa
  mass density: 739.7 ± 2.1 kg/m3
313.14 K, 33490 kPa
  mass density: 739.8 ± 2.1 kg/m3
313.14 K, 33518 kPa
  mass density: 739.7 ± 2.1 kg/m3
313.14 K, 33536 kPa
  mass density: 739.8 ± 2.1 kg/m3
313.14 K, 33561 kPa
  mass density: 739.7 ± 2.1 kg/m3
313.14 K, 33582 kPa
  mass density: 739.8 ± 2.1 kg/m3
313.14 K, 33604 kPa
  mass density: 739.9 ± 2.1 kg/m3
313.14 K, 33629 kPa
  mass density: 739.9 ± 2.1 kg/m3
313.14 K, 33657 kPa
  mass density: 740 ± 2.1 kg/m3
313.14 K, 33682 kPa
  mass density: 739.9 ± 2.1 kg/m3
313.14 K, 33707 kPa
  mass density: 739.8 ± 2.1 kg/m3
313.14 K, 33726 kPa
  mass density: 739.8 ± 2.1 kg/m3
313.14 K, 33748 kPa
  mass density: 739.9 ± 2.1 kg/m3
313.14 K, 33766 kPa
  mass density: 739.6 ± 2.1 kg/m3
313.14 K, 33782 kPa
  mass density: 739.9 ± 2.1 kg/m3
313.14 K, 33804 kPa
  mass density: 740 ± 2.1 kg/m3
313.14 K, 33832 kPa
  mass density: 740 ± 2.1 kg/m3
313.14 K, 33858 kPa
  mass density: 740 ± 2.1 kg/m3
313.14 K, 33880 kPa
  mass density: 740 ± 2.1 kg/m3
313.14 K, 33906 kPa
  mass density: 740.1 ± 2.1 kg/m3
313.14 K, 33924 kPa
  mass density: 740.1 ± 2.1 kg/m3
313.14 K, 33950 kPa
  mass density: 740 ± 2.1 kg/m3
313.14 K, 33978 kPa
  mass density: 740.2 ± 2.1 kg/m3
313.14 K, 33997 kPa
  mass density: 740.1 ± 2.1 kg/m3
313.14 K, 34023 kPa
  mass density: 740.1 ± 2.1 kg/m3
313.14 K, 34043 kPa
  mass density: 740.1 ± 2.1 kg/m3
313.14 K, 34066 kPa
  mass density: 740.1 ± 2.1 kg/m3
313.14 K, 34082 kPa
  mass density: 740.2 ± 2.1 kg/m3
313.14 K, 34105 kPa
  mass density: 740.2 ± 2.1 kg/m3
313.14 K, 34131 kPa
  mass density: 740.1 ± 2.1 kg/m3
313.14 K, 34158 kPa
  mass density: 740.3 ± 2.1 kg/m3
313.14 K, 34181 kPa
  mass density: 740.1 ± 2.1 kg/m3
313.14 K, 34211 kPa
  mass density: 740.2 ± 2.1 kg/m3
313.14 K, 34231 kPa
  mass density: 740.2 ± 2.1 kg/m3
313.14 K, 34264 kPa
  mass density: 740.2 ± 2.1 kg/m3
313.14 K, 34281 kPa
  mass density: 740.2 ± 2.1 kg/m3
313.14 K, 34305 kPa
  mass density: 740.2 ± 2.1 kg/m3
313.14 K, 34333 kPa
  mass density: 740.3 ± 2.1 kg/m3
313.14 K, 34358 kPa
  mass density: 740.4 ± 2.1 kg/m3
313.14 K, 34391 kPa
  mass density: 740.4 ± 2.1 kg/m3
313.14 K, 34414 kPa
  mass density: 740.4 ± 2.1 kg/m3
313.14 K, 34437 kPa
  mass density: 740.4 ± 2.1 kg/m3
313.14 K, 34466 kPa
  mass density: 740.4 ± 2.1 kg/m3
313.14 K, 34503 kPa
  mass density: 740.5 ± 2.1 kg/m3
313.14 K, 34520 kPa
  mass density: 740.4 ± 2.1 kg/m3
313.14 K, 34543 kPa
  mass density: 740.4 ± 2.1 kg/m3
313.14 K, 34560 kPa
  mass density: 740.5 ± 2.1 kg/m3
313.14 K, 34566 kPa
  mass density: 740.4 ± 2.1 kg/m3
313.14 K, 34568 kPa
  mass density: 740.5 ± 2.1 kg/m3
313.14 K, 34571 kPa
  mass density: 740.4 ± 2.1 kg/m3 and 740.5 ± 2.1 kg/m3
313.15 K, 1010 kPa
  mass density: 715.4 ± 2 kg/m3
313.15 K, 1032 kPa
  mass density: 715.4 ± 2 kg/m3
313.15 K, 1055 kPa
  mass density: 715.5 ± 2 kg/m3
313.15 K, 1082 kPa
  mass density: 715.5 ± 2 kg/m3
313.15 K, 1102 kPa
  mass density: 715.4 ± 2 kg/m3
313.15 K, 1122 kPa
  mass density: 715.5 ± 2 kg/m3
313.15 K, 1147 kPa
  mass density: 715.6 ± 2 kg/m3
313.15 K, 1182 kPa
  mass density: 715.5 ± 2 kg/m3
313.15 K, 1217 kPa
  mass density: 715.7 ± 2 kg/m3
313.15 K, 1254 kPa
  mass density: 715.6 ± 2 kg/m3
313.15 K, 3801 kPa
  mass density: 717.9 ± 2 kg/m3
313.15 K, 6798 kPa
  mass density: 720.3 ± 2 kg/m3
313.15 K, 6849 kPa
  mass density: 720.5 ± 2 kg/m3
313.15 K, 6918 kPa
  mass density: 720.6 ± 2 kg/m3
313.15 K, 6929 kPa
  mass density: 720.5 ± 2 kg/m3
313.15 K, 7976 kPa
  mass density: 721.4 ± 2 kg/m3
313.15 K, 7995 kPa
  mass density: 721.4 ± 2 kg/m3
313.15 K, 8013 kPa
  mass density: 721.4 ± 2 kg/m3
313.15 K, 8034 kPa
  mass density: 721.4 ± 2 kg/m3
313.15 K, 8045 kPa
  mass density: 721.4 ± 2 kg/m3
313.15 K, 8059 kPa
  mass density: 721.4 ± 2 kg/m3
313.15 K, 8073 kPa
  mass density: 721.5 ± 2 kg/m3
313.15 K, 8087 kPa
  mass density: 721.4 ± 2 kg/m3
313.15 K, 8102 kPa
  mass density: 721.4 ± 2 kg/m3
313.15 K, 8113 kPa
  mass density: 721.4 ± 2 kg/m3
313.15 K, 8129 kPa
  mass density: 721.5 ± 2 kg/m3
313.15 K, 8649 kPa
  mass density: 721.9 ± 2 kg/m3
313.15 K, 8666 kPa
  mass density: 721.9 ± 2 kg/m3
313.15 K, 8707 kPa
  mass density: 721.7 ± 2 kg/m3
313.15 K, 15697 kPa
  mass density: 727.3 ± 2 kg/m3
313.15 K, 15727 kPa
  mass density: 727.5 ± 2 kg/m3
313.15 K, 15757 kPa
  mass density: 727.3 ± 2 kg/m3
313.15 K, 15781 kPa
  mass density: 727.5 ± 2 kg/m3
313.15 K, 15816 kPa
  mass density: 727.6 ± 2 kg/m3
313.15 K, 15846 kPa
  mass density: 727.6 ± 2 kg/m3
313.15 K, 15873 kPa
  mass density: 727.6 ± 2 kg/m3
313.15 K, 17591 kPa
  mass density: 728.8 ± 2 kg/m3
313.15 K, 17641 kPa
  mass density: 728.9 ± 2 kg/m3
313.15 K, 17664 kPa
  mass density: 728.8 ± 2 kg/m3
313.15 K, 17686 kPa
  mass density: 728.8 ± 2 kg/m3
313.15 K, 17711 kPa
  mass density: 728.9 ± 2 kg/m3
313.15 K, 17734 kPa
  mass density: 728.9 ± 2 kg/m3
313.15 K, 20359 kPa
  mass density: 730.9 ± 2 kg/m3
313.15 K, 20406 kPa
  mass density: 730.9 ± 2 kg/m3
313.15 K, 20562 kPa
  mass density: 730.8 ± 2 kg/m3
313.15 K, 20961 kPa
  mass density: 731.3 ± 2 kg/m3
313.15 K, 20986 kPa
  mass density: 731.2 ± 2 kg/m3
313.15 K, 21097 kPa
  mass density: 731.3 ± 2 kg/m3
313.15 K, 21119 kPa
  mass density: 731.3 ± 2 kg/m3
313.15 K, 21249 kPa
  mass density: 731.5 ± 2 kg/m3
313.15 K, 21278 kPa
  mass density: 731.5 ± 2 kg/m3
313.15 K, 21337 kPa
  mass density: 731.5 ± 2 kg/m3
313.15 K, 21367 kPa
  mass density: 731.5 ± 2 kg/m3
313.15 K, 21711 kPa
  mass density: 731.8 ± 2 kg/m3
313.15 K, 21800 kPa
  mass density: 731.8 ± 2 kg/m3
313.15 K, 22455 kPa
  mass density: 732.2 ± 2 kg/m3
313.15 K, 22492 kPa
  mass density: 732.4 ± 2 kg/m3
313.15 K, 22548 kPa
  mass density: 732.4 ± 2 kg/m3
313.15 K, 22615 kPa
  mass density: 732.4 ± 2 kg/m3
313.15 K, 22970 kPa
  mass density: 732.6 ± 2 kg/m3
313.15 K, 22997 kPa
  mass density: 732.7 ± 2 kg/m3
313.15 K, 23029 kPa
  mass density: 732.6 ± 2 kg/m3
313.15 K, 23052 kPa
  mass density: 732.6 ± 2 kg/m3
313.15 K, 23072 kPa
  mass density: 732.7 ± 2 kg/m3
313.15 K, 23096 kPa
  mass density: 732.7 ± 2 kg/m3
313.15 K, 23131 kPa
  mass density: 732.8 ± 2 kg/m3
313.15 K, 23163 kPa
  mass density: 732.8 ± 2 kg/m3
313.15 K, 23183 kPa
  mass density: 732.9 ± 2 kg/m3
313.15 K, 23218 kPa
  mass density: 732.9 ± 2 kg/m3
313.15 K, 23249 kPa
  mass density: 732.9 ± 2 kg/m3
313.15 K, 23281 kPa
  mass density: 733 ± 2 kg/m3
313.15 K, 23309 kPa
  mass density: 732.8 ± 2 kg/m3
313.15 K, 23338 kPa
  mass density: 733 ± 2 kg/m3
313.15 K, 23370 kPa
  mass density: 733 ± 2 kg/m3
313.15 K, 25526 kPa
  mass density: 734.6 ± 2.1 kg/m3
